Here are results for 8 compounds from patent US12171229B2, “Heteroaryl-triazole and heteroaryl-tetrazole compounds as pesticides” (BAYER AKTIENGESELLSCHAFT, priority 2018, dated 2024).

As a reminder, the mortality is the percentage killed. A higher mortality goes with fewer survivors.

What all share (assay type): in vivo
One assay concerns Diabrotica balteata. Description: Diabrotica balteata spray test. Particulars: Diabrotica balteata, in Triticum aestivum, 168 h, after 7 days, larvae on wheat seeds, read-out: efficacy (seedlings grown up); for pest or weed control at 160 µg/disc, 500 g/ha: 160 μg/well (=500 g/ha); for pest or weed control at 80 µg/disc, 250 g/ha: 80 μg/well (=250 g/ha). In short, it runs like this:
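Scoring at 7 days compares seedling growth with untreated, uninfested controls (100% = equal growth, 0% = none grown). Wheat seedlings germinated 1 day on agar, 5 per well, received a spray of test solution made in 1000 ppm emulsifier water. Each unit then received 10–20 beetle larvae.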

The test system of the next assay is Meloidogyne incognita. Description: Meloidogyne incognita test. The conditions noted are these: 20 ppm; after 14 days; salad seedlings. How it is done: Meloidogyne incognita—Test Solvent: 125.0 parts by weight of acetone To produce a suitable preparation of active compound, 1 part by weight of active compound is mixed with the stated amount of solvent, and the concentrate is diluted with water to the desired concentration. Vessels are filled with sand, a solution of the active ingredient, a suspension containing eggs and larvae of the southern root-knot nematode (Meloidogyne incognita) and salad seeds. The salad seeds germinate and the seedlings grow. Galls develop in the roots. After 14 days the nematicidal activity is determined on the basis of the percentage of gall formation. 100% means no galls were found and 0% means the number of galls found on the roots of the treated plants was equal to that in untreated control plants.

A further assay deals with Phaedon cochleariae. Description: Phaedon cochleariae spray test. The conditions noted are these: foliar, 168 h, after 7 days, larvae on Chinese cabbage leaf disks. How it is done:
Phaedon Cochleariae—Spray Test
(§1) To produce a suitable preparation of active compound, 1 part by weight of active compound is mixed with the stated amount of solvents and is diluted with water, containing an emulsifier concentration of 1000 ppm, to the desired concentration. Further test concentrations are prepared by dilution with emulsifier containing water.
Chinese cabbage (Brassica pekinensis) leaf disks are sprayed with a preparation of the active ingredient of the desired concentration. Once dry, the leaf disks are infested with mustard beetle larvae (Phaedon cochleariae).
After 7 days mortality in % is determined. 100% means all beetle larvae have been killed and 0% means none of the beetle larvae have been killed.

In assay [1] the test system is Ctenocephalides felis. The experiment in a line: Ctenocephalides felis oral test. The conditions noted are these: 48 h, 100 ppm in cattle blood, after 2 days, adult unfed cat fleas. In short, it runs like this:
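Compound dissolved in DMSO and diluted in cattle blood to test concentration, offered to ~20 unfed adult fleas via a parafilm-sealed blood chamber held at 37° C (fleas at room temperature). Kill recorded at 2 days as % mortality.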

In the next assay the test system is Spodoptera frugiperda. The experiment in a line: Spodoptera frugiperda spray test. The conditions noted are these: 168 h, after 7 days, larvae on maize leaf sections. The essentials: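 Percent larval kill read at day 7 on Zea mays leaf pieces that were spray-treated and, after drying, infested. Spray preparations made by dilution with emulsifier-containing water (1000 ppm).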

The test system of the next assay is Nezara viridula. The experiment in a line: Nezara viridula spray test. Particulars: 96 h, after 4 days, larvae on barley plants. In short, it runs like this: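 Mortality (%) was assessed at day 4, from 0% (no bugs dead) to 100% (all dead). The spray solution was compound diluted to test concentration in water with 1000 ppm emulsifier and applied to barley carrying southern green stink bug larvae.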

A further assay relates to Boophilus microplus. The experiment in a line: Boophilus microplus injection test. Particulars: Rhipicephalus microplus, 168 h; 20 μg/animal injected into the abdomen; adult engorged female ticks; egg deposition after 7 days; read-out: efficacy (infertile eggs). In short, it runs like this: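 Efficacy, from 0% (all eggs fertile) to 100% (all infertile), was scored on eggs laid by five engorged adult females. Each female was injected intra-abdominally with 1 μl of compound solution in DMSO. Fertile egg laying was checked at 7 days, with uncertain eggs kept until hatching at about 42 days.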

Assay [2] deals with Myzus persicae. Description: Myzus persicae oral test. Particulars: 120 h, after 5 days. The essentials:
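Aphid mortality (%) was recorded 5 days after a mixed Myzus persicae population began sucking, through parafilm, on compound solutions (acetone stock diluted with water) combined with sugar-supplemented IPL41 medium.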

The next assay has as its system Nilaparvata lugens. Description: Nilaparvata lugens spray test. Particulars: 336 h, after 14 days, rice plants. How it is done: Nilaparvata lugens—Spray Test
as §1
Rice plants (Oryza sativa) are sprayed with a preparation of the active ingredient of the desired concentration and the plants are infested with the brown planthopper (Nilaparvata lugens).
After 14 days mortality in % is determined. 100% means all planthoppers have been killed and 0% means none of the planthoppers have been killed.

The test system of assay [3] is Ctenocephalides felis. The experiment in a line: Ctenocephalides felis in-vitro contact test, adult cat flea. Particulars: 5 μg/cm^2 (=500 g/ha), after 48 hours, adult cat fleas, read-out: efficacy (fleas dead or moribund). The essentials:
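Compound in acetone coated onto inner walls of glass tubes, e.g. 900 ppm giving 5 μg/cm². After drying, 5–10 adult C. felis added per tube and held at room temperature. At 48 h, fleas unable to escape a 45–50 °C heating plate within 5 min scored dead/moribund, giving % efficacy.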

In assay [4] the test system is cattle ticks (Boophilus microplus) strane Parhurst, SP-resistant. The experiment in a line: Boophilus microplus dip test. The conditions noted are these: Rhipicephalus microplus, 168 h, engorged adult female cattle ticks, egg deposition after 7 days, read-out: efficacy (infertile eggs). How it is done: Boophilus microplus—Dip Test
Test animal: cattle ticks (Boophilus microplus) strane Parhurst, SP-resistant
Solvent: dimethyl sulfoxide
To produce a suitable preparation of active compound, 10 mg of active compound are dissolved in 0.5 ml solvent, and the concentrate is diluted with water to the desired concentration.
This compound solution is pipetted into tubes. 8-10 engorged, adult, female cattle ticks (Boophilus microplus) are placed in perforated tubes. These tubes are immersed in the aqueous compound solution until the ticks are completely moistened. After the liquid has drained off, the ticks are transferred to a filter paper in a plastic tray and stored in a climate chamber.
After 7 days egg deposition of fertile eggs is monitored. Eggs where fertility is not visible are stored in a climate chamber till hatching after about 42 days. An efficacy of 100% means all eggs are infertile; 0% means all eggs are fertile.

For the next assay, the system named is Rhipicephalus sanguineus. The experiment in a line: Rhipicephalus sanguineus in-vitro contact test, adult brown dog ticks. Particulars: 5 μg/cm^2 (=500 g/ha), after 48 hours, read-out: efficacy (ticks dead or moribund). How it is done:
Rhipicephalus Sanguineus—In-Vitro Contact Tests with Adult Brown Doe Ticks
9 mg compound is solved in 1 ml acetone and diluted with acetone to the desired concentration. 250 μl of the test solution is filled in 25 ml glass test tubes and homogeneously distributed on the inner walls by rotation and tilting on a shaking device (2 h at 30 rpm). With a compound concentration of 900 ppm, an inner surface of 44.7 cm^2 and a homogeneous distribution, a dose of 5 μg/cm^2 is achieved.
After the solvent has evaporated, each test tube is filled with 5-10 adult brown dog ticks (Rhipicephalus sanguineus), closed with a perforated lid and incubated in a lying position at room temperature and relative humidity. After 48 hours efficacy is determined. The ticks are patted on the ground of the tubes and are incubated on a heating plate at 45-50° C. for at most 5 minutes. Immotile or uncoordinated moving ticks, which are not able to escape the heat by climbing upwards, are marked as dead or moribund.
An efficacy of 100% means all ticks are dead or moribund; 0% means no ticks are dead or moribund.

For assay [5], the system named is Myzus persicae. The experiment in a line: Myzus persicae spray test. Particulars: foliar, 120 h, after 5 days, Chinese cabbage leaf disks. The essentials:
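Percent kill was recorded 5 days after spraying. Test solutions, prepared with solvent and diluted in 1000 ppm emulsifier water, were applied to Brassica pekinensis leaf disks carrying mixed-instar green peach aphids.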

`COc1cc(C)nc(-n2ncnc2C(C)N(CC2CC2)C(=O)c2cc(Cl)cc(C(F)(F)F)c2)n1` (centres unmarked) [Example I-001]: the pest or weed control at 160 µg/disc, 500 g/ha in the assay on Diabrotica balteata came to 100%. Further, in the assay on Meloidogyne incognita, the “nematicidal activity (gall formation)” value was determined as 100%.
Regarding `Cc1cc(C)nc(-n2ncnc2C(C)N(CC2CC2)C(=O)c2cc(Cl)cc(C(F)(F)F)c2)n1` (centres unmarked) [Example I-002, 3-Chloro-N-(cyclopropylmethyl)-N-{1-[1-(4,6-dimethylpyrimidin-2-yl)-1H-1,2,4-triazol-5-yl]ethyl}-5-(trifluoromethyl)benzamide], in the assay on Meloidogyne incognita, the “nematicidal activity (gall formation)” value is recorded as 90%.
Take `CC(c1ncnn1-c1nc2ccccn2n1)N(CC1CC1)C(=O)c1cc(Cl)cc(C(F)(F)F)c1` (centres unmarked) [Example I-005]: the pest or weed control at 80 µg/disc, 250 g/ha with Diabrotica balteata was determined as 100%. Besides, the pest or weed control at 160 µg/disc, 500 g/ha with Diabrotica balteata was 100%. Besides, the mortality at 500 g/ha with Phaedon cochleariae, with Spodoptera frugiperda and in the assay on Nezara viridula was 100% each time. The mortality at 100 ppm in the assay with Ctenocephalides felis [1] is 100%. The pest or weed control at 0.02 mg in the assay on Boophilus microplus was found to be 100%.
With `CC(c1ncnn1-c1ccn(C)n1)N(CC1CC1)C(=O)c1cc(Cl)cc(C(F)(F)F)c1` (centres unmarked) [Example I-006], in the assay with Diabrotica balteata, the pest or weed control at 80 µg/disc, 250 g/ha turned out to be 100% and the pest or weed control at 160 µg/disc, 500 g/ha amounted to 100%. The compound also returned a mortality at 500 g/ha with Phaedon cochleariae of 100%. In addition, in the assay on Ctenocephalides felis [1], the mortality at 100 ppm was found to be 100%. In the assay with Spodoptera frugiperda, the mortality at 500 g/ha came out at 100%. In the assay on Myzus persicae [2], this compound had a mortality at 20 ppm of 100%. In addition, the pest or weed control at 0.02 mg with Boophilus microplus was found to be 100%.
In the case of `CC(c1ncnn1-c1ncc(C#N)cn1)N(CC1CC1)C(=O)c1cc(Cl)cc(C(F)(F)F)c1` (centres unmarked) [Example I-008], in the assay with Diabrotica balteata, the pest or weed control at 80 µg/disc, 250 g/ha was 100% and the pest or weed control at 160 µg/disc, 500 g/ha turned out to be 100%. Also, the mortality at 500 g/ha in the assay with Phaedon cochleariae was 100%. Also, in the assay with Spodoptera frugiperda, the mortality at 100 g/ha is 100% and the mortality at 500 g/ha worked out at 100%. In the assay with Nezara viridula, this compound had a mortality at 100 g/ha of 90% and a mortality at 500 g/ha of 90%. The same compound returned a mortality at 20 ppm in the assay on Myzus persicae [2] of 100%.
Turning to `C[C@H](NC(=O)c1cc(Cl)cc(C(F)(F)F)c1)c1ncnn1-c1ncc(OC(F)F)cn1` [Example I-012], the mortality at 500 g/ha in the assay on Nilaparvata lugens, in the assay with Spodoptera frugiperda and with Nezara viridula was 100% in each case. Moreover, the pest or weed control at 80 µg/disc, 250 g/ha in the assay on Diabrotica balteata worked out at 100%. In addition, the pest or weed control at 160 µg/disc, 500 g/ha with Diabrotica balteata worked out at 100%. This compound also yielded a mortality at 100 ppm in the assay with Ctenocephalides felis [1] of 100%. The pest or weed control at 5 µg/cm2 with Ctenocephalides felis [3] and in the assay with Rhipicephalus sanguineus was 100% throughout. In addition, in [4], the pest or weed control at 100 ppm turned out to be 95%. Moreover, the mortality at 100 g/ha in the assay on Spodoptera frugiperda and in the assay with Nezara viridula was 100% each time. For the same compound, the pest or weed control at 0.02 mg in the assay with Boophilus microplus was determined as 100%.
`C[C@H](NC(=O)c1cncc(C(F)(F)F)c1)c1ncnn1-c1ccc(C#N)cn1` [Example I-067]: the mortality at 500 g/ha came out at 90% in the assay on Nilaparvata lugens, 100% with Spodoptera frugiperda, 100% in the assay on Nezara viridula and 90% in the assay with Myzus persicae [5] (500 g/ha). Also, in the assay with Diabrotica balteata, the pest or weed control at 80 µg/disc, 250 g/ha stood at 100%. The pest or weed control at 160 µg/disc, 500 g/ha in the assay on Diabrotica balteata was 100%. For the same compound, the mortality at 100 ppm with Ctenocephalides felis [1] was 100%. Moreover, the pest or weed control at 5 µg/cm2 in the assay with Ctenocephalides felis [3] and with Rhipicephalus sanguineus was 100% in each case. For the same compound, the mortality at 100 g/ha with Spodoptera frugiperda is 100%; in the assay with Nezara viridula it was 100%; in the assay on Myzus persicae [5] (100 g/ha), 90%. Besides, in the assay on Myzus persicae [2] (4 ppm), the mortality at 4 ppm is 100%. The pest or weed control at 0.02 mg in the assay with Boophilus microplus amounted to 100%.
For `C[C@H](NC(=O)c1cc(Cl)cc(C(F)(F)F)c1)c1ncnn1-c1ccc(-n2cccn2)cn1` [Example I-074], in the assay with Diabrotica balteata, the pest or weed control at 80 µg/disc, 250 g/ha stood at 100% and the pest or weed control at 160 µg/disc, 500 g/ha was 100%. This compound gave a mortality at 100 ppm in the assay with Ctenocephalides felis [1] of 80%. The pest or weed control at 5 µg/cm2 in the assay on Ctenocephalides felis [3] worked out at 80%. The pest or weed control at 5 µg/cm2 in the assay on Rhipicephalus sanguineus worked out at 80%. In the assay on Spodoptera frugiperda, the mortality at 100 g/ha stood at 100% and the mortality at 500 g/ha amounted to 100%. For the same compound, the pest or weed control at 0.02 mg in the assay on Boophilus microplus was found to be 100%.
